The source made the active and inactive calls. The calls are words filed in the database; no cut-off is given here.

The values below come from ChEMBL document CHEMBL5385939, “Novel ether derivatives of 11-azaartemisinins with high order antimalarial activity against multidrug-resistant Plasmodium yoelii in Swiss mice” (2024).

The subject of assay [1] is Plasmodium yoelii. In words: Antimalarial activity against multidrug resistant Plasmodium yoelii infected in swiss mouse assessed as reduction in parasitaemia at 48 mg/kg, IM administered for 4 days. It is filed as functional. Particulars: time 4 day. Also on record: scale not given: the % may be the effect or the level left.
Assay [2] deals with Plasmodium yoelii. In words: Antimalarial activity against multidrug resistant Plasmodium yoelii infected in swiss mouse assessed as reduction in parasitaemia at 24 mg/kg, po administered for 4 days. Type of assay: functional. Further details: scale not given: the % may be the effect or the level left. Particulars: time 4 day.
Assay [3] concerns Plasmodium yoelii. In words: Antimalarial activity against multidrug resistant Plasmodium yoelii infected in swiss mouse assessed as increase in survival time at 48 mg/kg, po administered for 4 days and measured on day 28. Type of assay: functional, organism-based. The note with it: time 28.0 day.
The subject of assay [4] is Plasmodium yoelii. In words: Antimalarial activity against multidrug resistant Plasmodium yoelii infected in swiss mouse assessed as reduction in parasitaemia at 48 mg/kg, po administered for 4 days. Also on record: scale not given: the % may be the effect or the level left. It is filed as functional. Particulars: time 4 day.
Assay [5] has as its system Plasmodium yoelii. Nature of the assay: Antimalarial activity against multidrug resistant Plasmodium yoelii infected in swiss mouse assessed as reduction in parasitaemia at 6 mg/kg, IM administered for 4 days. It is filed as functional. Also on record: scale not given: the % may be the effect or the level left. Particulars: time 4 day.
In assay [6] the test system is Plasmodium yoelii. Nature of the assay: Antimalarial activity against multidrug resistant Plasmodium yoelii infected in swiss mouse assessed as reduction in parasitaemia at 12 mg/kg, IM administered for 4 days. It is filed as functional. Further details: scale not given: the % may be the effect or the level left. Particulars: time 4 day.
In assay [7] the test system is Plasmodium yoelii. In words: Antimalarial activity against multidrug resistant Plasmodium yoelii infected in swiss mouse assessed as increase in survival time at 12 mg/kg, IM administered for 4 days and measured on day 28. Type of assay: functional, organism-based. Particulars: time 28.0 day.
In assay [8] the test system is Plasmodium yoelii. In words: Antimalarial activity against multidrug resistant Plasmodium yoelii infected in swiss mouse assessed as increase in survival time at 6 mg/kg, IM administered for 4 days and measured on day 28. It is filed as functional, organism-based. The note with it: time 28.0 day.
In assay [9] the test system is Plasmodium yoelii. In words: Antimalarial activity against multidrug resistant Plasmodium yoelii infected in swiss mouse assessed as increase in survival time at 48 mg/kg, IM administered for 4 days and measured on day 28. It is filed as functional, organism-based. The note with it: time 28.0 day.
In assay [10] the test system is Plasmodium yoelii. In words: Antimalarial activity against multidrug resistant Plasmodium yoelii infected in swiss mouse assessed as increase in survival time at 24 mg/kg, po administered for 4 days and measured on day 28. It is filed as functional, organism-based. Particulars: time 28.0 day.
For assay [11], the system named is Plasmodium yoelii. Nature of the assay: Antimalarial activity against multidrug resistant Plasmodium yoelii infected in swiss mouse assessed as increase in survival time at 3 mg/kg, IM administered for 4 days and measured on day 28. Type of assay: functional, organism-based. Particulars: time 28.0 day.
Assay [12] concerns Plasmodium yoelii. In words: Antimalarial activity against multidrug resistant Plasmodium yoelii infected in swiss mouse assessed as reduction in parasitaemia at 3 mg/kg, IM administered for 4 days. It is filed as functional. Also on record: scale not given: the % may be the effect or the level left. The note with it: time 4 day.
In assay [13] the test system is Plasmodium yoelii. In words: Antimalarial activity against multidrug resistant Plasmodium yoelii infected in swiss mouse assessed as increase in survival time at 12 mg/kg, po administered for 4 days and measured on day 28. Type of assay: functional, organism-based. The note with it: time 28.0 day.
Assay [14] concerns Plasmodium yoelii. In words: Antimalarial activity against multidrug resistant Plasmodium yoelii infected in swiss mouse assessed as increase in survival time at 24 mg/kg, IM administered for 4 days and measured on day 28. Particulars: time 28.0 day. It is filed as functional, organism-based.
Assay [15] has as its system Plasmodium yoelii. In words: Antimalarial activity against multidrug resistant Plasmodium yoelii infected in swiss mouse assessed as reduction in parasitaemia at 24 mg/kg, IM administered for 4 days. Also on record: scale not given: the % may be the effect or the level left. Type of assay: functional. Particulars: time 4 day.
Assay [16] relates to Plasmodium yoelii. In words: Antimalarial activity against multidrug resistant Plasmodium yoelii infected in swiss mouse assessed as reduction in parasitaemia at 12 mg/kg, po administered for 4 days. Type of assay: functional. Also on record: scale not given: the % may be the effect or the level left. The note with it: time 4 day.

Regarding `C[C@@H]1CC[C@H]2[C@@H](C)C(=O)N(CCO)[C@@H]3O[C@@]4(C)CC[C@@H]1[C@@]23OO4`, the Activity in assay [1] is given as 100%; in [2], 10%; in [4], 100%. Moreover, the result in assay [3] was inactive.
With `C[C@@H]1CC[C@H]2[C@@H](C)C(=O)N(CCOCCCc3ccccc3)[C@@H]3O[C@]4(C)CC[C@@H]1[C@@]23OO4`, the Activity in assay [2] is 100%; in assay [5] it was 100%; in assay [6] it was 91%. Besides, the outcome in assay [7] was inactive.
`C[C@@H]1CC[C@H]2[C@@H](C)C(=O)N(OCc3ccc([N+](=O)[O-])cc3)[C@@H]3O[C@@]4(C)CC[C@@H]1[C@@]23OO4`: the Activity in assay [2] and in assay [6] was 100% in each case.
For `C[C@@H]1CC[C@H]2[C@@H](C)C(=O)N(CCOCc3ccccc3)[C@@H]3O[C@]4(C)CC[C@@H]1[C@@]23OO4`, the Activity in [2], in assay [5] and in [6] was 100% throughout. Moreover, the result in assay [8] was inactive. For the same molecule, in assay [7], the outcome was Active.
Take `C[C@@H]1CC[C@H]2[C@@H](C)C(=O)N(O)[C@@H]3O[C@@]4(C)CC[C@@H]1[C@@]23OO4`: the Activity in assay [1] was found to be 78%. Besides, in [9], the result was inactive.
Regarding `C[C@@H]1CC[C@H]2[C@@H](C)C(=O)N(CCOCc3ccc([N+](=O)[O-])cc3)[C@@H]3O[C@@]4(C)CC[C@@H]1[C@@]23OO4`, the Activity in [2] is 90%; in [5], 100%; in assay [6] it was 100%. The result in assay [10] and in assay [8] was inactive. For the same molecule, in assay [7], the result was Active.
Take `C[C@@H]1CC[C@H]2[C@@H](C)C(=O)N(CCOCc3ccc(-c4ccccc4)cc3)[C@@H]3O[C@@]4(C)CC[C@@H]1[C@@]23OO4`: the Activity in [2] and in assay [6] was 100% throughout.
Turning to `CCOC1O[C@@H]2O[C@@]3(C)CC[C@H]4[C@H](C)CC[C@@H]([C@H]1C)[C@@]24OO3` (stereo partly specified), the Activity in [2], in assay [5], in [12] and in assay [6] was 100% each time. Moreover, the result in assay [11] was inactive. Also, the result in assay [8], in assay [7] and in [3] was Active.
With `C[C@@H]1CC[C@H]2[C@@H](C)C(=O)N(OCCCc3ccccc3)[C@@H]3O[C@@]4(C)CC[C@@H]1[C@@]23OO4`, the Activity in assay [2] was 94%; in [6], 81%. Moreover, the outcome in assay [10] and in assay [7] was inactive.
For the molecule `C[C@@H]1CC[C@H]2[C@@H](C)C(=O)N(CCOCc3ccccc3F)[C@@H]3O[C@@]4(C)CC[C@@H]1[C@@]23OO4`, the Activity in [2] and in assay [6] was 100% throughout.
Take `C[C@@H]1CC[C@H]2[C@@H](C)C(=O)N(N)[C@@H]3O[C@@]4(C)CC[C@@H]1[C@@]23OO4`: the result in assay [13] and in assay [14] was inactive. Besides, the figures for the Activity in assay [2], in assay [15] and in assay [16] were 100%, 100% and 99%, respectively.
Regarding `C[C@@H]1CC[C@H]2[C@@H](C)C(=O)N(NCc3ccc(Br)cc3)[C@@H]3O[C@@]4(C)CC[C@@H]1[C@@]23OO4`, the Activity in assay [2] and in assay [6] was 100% in each case.
